# Where a name gives a salt, the structure may show the parent alone. Residues, ends and D or L forms follow the SMILES beside them.
# Assays:
# P. aeruginosa FRD1 = assay type: cell-based, Pseudomonas aeruginosa; conditions: FRD1, 2 h
# Protocol: (§1) The MIC assays were performed as previously described ([43]). Briefly, peptides were plated in a 2-fold dilution series (50 μL/well) of Mueller-Hinton broth (MHB) in Costar 96-well cell culture plates (Corning, NY, USA). Three repeats were set for each concentration. E. coli ATCC 25922, A. hydrophila ATCC 7966, P. aeruginosa PAO1, P. aeruginosa FRD1, S. aureus ATCC 25923, S. agalactiae ATCC 13813, S. pneumoniae ATCC 49619, methicillin-resistant S. aureus ATCC 43300, and methicillin-resistant S. aureus USA300 were cultured in Luria-Bertani (LB) medium, while K. pneumoniae CMCC46117 was cultured in tryptic soy broth (TSB) medium. Incubation was done at 37°C and 150 × g for 12 h. Bacteria were transferred to fresh MHB at a ratio of 1% (vol/vol) and incubated to reach a logarithmic growth phase. Then, 50 μL of a bacterial suspension at 4 × 10^6 CFU/mL was added to each well. […]
# [1] = system: Aeromonas hydrophila ATCC 7966; assay type: cell-based; conditions: ATCC 7966, 2 h
# Protocol: as §1
# [2] = system: Escherichia coli ATCC 25922; assay type: cell-based; conditions: ATCC 25922, 2 h
# Protocol: as §1
# [3] = system: Klebsiella pneumoniae CMCC46117; assay type: cell-based; conditions: CMCC46117, 2 h
# Protocol: as §1
# [4] = system: Pseudomonas aeruginosa PAO1; assay type: cell-based; conditions: PAO1, 2 h
# Protocol: as §1
# [5] = system: Staphylococcus aureus ATCC 25923; assay type: cell-based; conditions: ATCC 25923, 2 h
# Protocol: as §1
# [6] = system: Streptococcus agalactiae ATCC 13813; assay type: cell-based; conditions: ATCC 13813, 2 h
# Protocol: as §1
# [7] = system: Streptococcus pneumoniae ATCC 49619; assay type: cell-based; conditions: ATCC 49619, 2 h
# Protocol: as §1
# [8] = system: Methicillin-resistant S. aureus ATCC 43300; assay type: cell-based, Staphylococcus aureus; conditions: ATCC 43300, 2 h
# Protocol: as §1
# [9] = system: Methicillin-resistant S. aureus USA300; assay type: cell-based, Staphylococcus aureus; conditions: USA300, 2 h
# Protocol: as §1
# E. coli ATCC 25922 = test: SYTOX green membrane permeability assay; assay type: cell-based, Escherichia coli; conditions: E. coli ATCC 25922, 5 μM SYTOX green, read every 1 min
# Protocol: The SYTOX green staining assay was performed to assess peptide-associated membrane damage ([47], [52]). E. coli ATCC 25922 and S. aureus ATCC 25923 cells in the mid-logarithmic phase were collected, washed thrice, and resuspended (5 × 10^7 CFU/mL) in buffer B (10 mM Tris-HCl, pH 7.4, at 25°C). The bacterial suspensions were mixed with 5 μM SYTOX green and incubated for 15 min at room temperature in the dark. Then, the mixtures were added to black, clear-bottom 96-well plates at a density of 100 μL/well. After peptide addition, SYTOX green uptake was monitored using an EnSpire multimode plate reader (PerkinElmer, Singapore) with an excitation wavelength of 485 nm and an emission wavelength of 520 nm. Each measurement interval was 1 min, totaling 30 to 60 times. Melittin was used as the positive control, while bovine serum albumin (BSA) was the negative control.
# [10] = data not shown
# [11] = system: P. aeruginosa FRD1 biofilm; test: Biofilm inhibition assay (crystal violet); assay type: cell-based, Pseudomonas aeruginosa; conditions: P. aeruginosa FRD1, 6.25 μg/mL (0.5× MIC), 37°C 24 h, triplicate
# Protocol: In vitro static biofilm models have been reported in many studies ([45][–][47]). A Pseudomonas aeruginosa mucoid strain, FRD1, isolated from a cystic fibrosis patient, was used for the biofilm inhibition and eradication assay. The FRD1 strain was shock cultured to logarithmic growth stage at 37°C and 150 × g. After cleaning using PBS and centrifuging thrice, the bacteria were resuspended in MHB medium (with 0.2% glucose) and gradient diluted to an OD600 value of ~0.01.
# For the biofilm inhibition assay, 90-μL amounts of bacterial suspensions and 10-μL amounts of increasing concentrations of the peptide were added to a 96-well plate and coincubated at 37°C for 24 h. Then, bacterial biofilms were quantified as follows: (i) planktonic bacteria were removed by washing thrice using PBS, (ii) biofilm bacteria were fixed in 100 μL of 4% paraformaldehyde at room temperature for 15 min and (iii) stained with 100 μL of 0.1% crystal violet for 30 min, (iv) the dye was removed, followed by washing twice using PBS, adding 200 μL of 95% ethanol to each well to dissolve the crystal violet, and finally, (v) absorbance was measured at 590 nm using an EnSpire multimode plate reader (PerkinElmer, Singapore).
# [12] = system: methicillin-resistant S. aureus standard strain USA300; test: Neutropenic mouse thigh infection model; assay type: in vivo; conditions: neutropenic BALB/c mice, 300 μg i.p. at 2 h postinfection
# Protocol: Female BALB/c mice were used to construct a neutropenic murine thigh infection model as previously published ([48][–][50]). Briefly, mice (n = 9/group) were rendered neutropenic by consecutive intraperitoneal injections of 150 and 100 mg/kg of body weight cyclophosphamide at 4 and 1 day before bacterial injection ([51]). An S. aureus USA300 inoculum (~1.5 × 10^6 CFU/mL) was prepared by diluting logarithmic phase bacteria with fresh MHB. Each mouse was infected by intramuscular injection of 0.1 mL of the inoculum (~1.5 × 10^5 CFU) into the right thigh muscles. At 2 h postinfection, 0.1 mL of lcCCL28-25 peptide (300 μg) or vancomycin hydrochloride (300 μg, 15 mg/kg) was administered by intraperitoneal injection. The control group was injected with an equal volume of PBS. Untreated control mice were sacrificed at the start of treatment to establish the baseline bacterial burden. Mice in the three treatment groups (PBS, vancomycin, and lcCCL28-25) were sacrificed at 48 h postinfection. Their right thighs were aseptically harvested, placed in sterile saline and homogenized using a Bioprep-6 homogenizer (Allsheng, Hangzhou, China). After being serially diluted to 1:10 in sterile saline, 100-μL amounts of tissue suspensions at various concentrations were plated on LB agar to determine bacterial counts after incubation at 37°C for 24 h.
SMILES,MIC (P. aeruginosa FRD1) [µg/mL],MIC [1] [µg/mL],MIC [2] [µg/mL],MIC [3] [µg/mL],MIC [4] [µg/mL],MIC [5] [µg/mL],MIC [6] [µg/mL],MIC [7] [µg/mL],MIC [8] [µg/mL],MIC [9] [µg/mL],SYTOX green fluorescence intensity (E. coli ATCC 25922),solubility in 50% TFE solution [10],reduction of biofilm formation [11],"reduction in average bacterial load in thighs versus control group ([12]; S. aureus USA300 i.m., 48 h postinfection) [log10 CFU/g]","mice that died after 48 h of infection ([12]; n = 9/group, three died in PBS group)"
CSCC[C@H](NC(=O)[C@H](CCCNC(=N)N)NC(=O)[C@H](CCCCN)NC(=O)[C@H](CC(C)C)NC(=O)[C@H](CCCCN)NC(=O)[C@H](CCCNC(=N)N)NC(=O)[C@H](CCCCN)NC(=O)[C@@H](NC(=O)[C@H](CCCCN)NC(=O)[C@@H]1CCCN1C(=O)[C@H](Cc1c[nH]cn1)NC(=O)[C@H](C)N)C(C)C)C(=O)N[C@@H](CCC(N)=O)C(=O)N[C@@H](CCCNC(=N)N)C(=O)N[C@@H](CCCCN)C(=O)N[C@@H](CCCCN)C(=O)N[C@@H](CC(=O)O)C(=O)NCC(=O)N[C@@H](CCCCN)C(=O)N[C@@H](CCC(N)=O)C(=O)N[C@@H](CCCCN)C(=O)N[C@@H](CCCNC(=N)N)C(=O)N[C@@H](Cc1c[nH]cn1)C(=O)O [omCCL28-like-23] (H-AHPKVKRKLKRMQRKKDGKQKRH-OH; N-terminus and C-terminus assumed),25.00,>50.00,12.50,>50.00,25.00,12.50,12.50,25.00,25.00,12.50,increased rapidly within 20 min,insoluble,,,
CC[C@H](C)[C@H](NC(=O)[C@H](CCC(N)=O)NC(=O)[C@H](CCSC)NC(=O)[C@H](C)NC(=O)[C@@H](NC(=O)CNC(=O)[C@H](CC(C)C)NC(=O)[C@@H](NC(=O)[C@H](CCCCN)NC(=O)[C@H](CCCCN)NC(=O)[C@@H](NC(=O)[C@H](CCCNC(=N)N)NC(=O)[C@@H]1CCCN1C(=O)[C@H](CC(=O)O)NC(=O)[C@H](C)N)C(C)C)C(C)C)C(C)C)C(=O)N[C@@H](CCCNC(=N)N)C(=O)N[C@@H](CCCCN)C(=O)N[C@@H](C)C(=O)N[C@@H](CCC(N)=O)C(=O)N[C@@H](CC(C)C)C(=O)N[C@@H](CCSC)C(=O)N[C@@H](CCCNC(=N)N)C(=O)N[C@@H](CCC(=O)O)C(=O)N[C@@H](CCCCN)C(=O)N[C@@H](CC(C)C)C(=O)N[C@@H](CC(N)=O)C(=O)N[C@@H](CO)C(=O)N[C@H](C(=O)N[C@@H](CCSC)C(=O)N[C@@H](CCCNC(=N)N)C(=O)N[C@@H](CCCNC(=N)N)C(=O)O)[C@@H](C)CC [omCK11-31] (H-ADPRVKKVLGVAMQIRKAQLMREKLNSIMRR-OH; N-terminus and C-terminus assumed),12.50,>50.00,12.50,25.00,25.00,12.50,12.50,12.50,12.50,12.50,fluorescence trends similar to the trends in E. coli cells treated with lcCCL28-25,,~ 45%,,
"CN[C@H](CC(C)C)C(=O)N[C@H]1C(=O)N[C@@H](CC(N)=O)C(=O)N[C@H]2C(=O)N[C@H]3C(=O)N[C@H](C(=O)N[C@H](C(=O)O)c4cc(O)cc(O)c4-c4cc3ccc4O)[C@H](O)c3ccc(c(Cl)c3)Oc3cc2cc(c3O[C@@H]2O[C@H](CO)[C@@H](O)[C@H](O)[C@H]2O[C@H]2C[C@](C)(N)[C@H](O)[C@H](C)O2)Oc2ccc(cc2Cl)[C@H]1O [vancomycin, vancomycin hydrochloride, reference compound]",,,,,,,,,,,,,,1.30,none
